According to the supplement of paper PMC6045584:
± gives the standard deviation of the averaged measurements.

How the values were obtained:
AFIMOXIFENE = compound: CC/C(=C(\c1ccc(O)cc1)c1ccc(OCCN(C)C)cc1)c1ccccc1 [AFIMOXIFENE]; assay: area under dose-response curve of surviving fraction (unscaled, Aref=0) (surviving fraction x log10(nM)); higher = more resistant; conditions: exposure time: 5 days; dose range 0.5-1000 nM
How it was run: (§1)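 Surviving fractions were fitted by 3-parameter logistic regression in the drc R package to give dose-response survival curves. They came from tumour cell lines treated for five days with eight inhibitor concentrations from 0.5 to 1000 nM and read by CellTiter-Glo luminescence against DMSO-only wells. The area under the curve is the unscaled activity area. It was calculated over log10 dose with Aref = 0.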

CABOZANTINIB = compound: COc1cc2nccc(Oc3ccc(NC(=O)C4(C(=O)Nc5ccc(F)cc5)CC4)cc3)c2cc1OC [CABOZANTINIB]; assay: as above; conditions: exposure time: 5 days; dose range 0.5-1000 nM
How it was run: as §1

IMATINIB = compound: Cc1ccc(NC(=O)c2ccc(CN3CCN(C)CC3)cc2)cc1Nc1nccc(-c2cccnc2)n1 [IMATINIB]; assay: as above; conditions: exposure time: 5 days; dose range 0.5-1000 nM
How it was run: as §1

BMN-673 = compound: Cn1ncnc1[C@H]1c2n[nH]c(=O)c3cc(F)cc(c23)N[C@@H]1c1ccc(F)cc1 [BMN-673]; assay: as above; conditions: exposure time: 5 days; dose range 0.5-1000 nM
How it was run: as §1

LENVATINIB = compound: COc1cc2nccc(Oc3ccc(NC(=O)NC4CC4)c(Cl)c3)c2cc1C(N)=O [LENVATINIB]; assay: surviving fraction relative to DMSO-only wells; higher = less growth inhibition; conditions: exposure time: 5 days
How it was run: (§2)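 Five days of continuous inhibitor exposure, at 0.5, 1, 5, 10, 50, 100, 500 and 1000 nM, followed a 24-hour period after log-phase tumour cell lines were seeded at 250–500 cells per well in 384-well plates. Surviving fraction was derived from CellTiter-Glo luminescence relative to the median of DMSO-only wells. Plates were read after 10 minutes at room temperature, and lines screened three times were kept only if replicate Pearson r >0.7 and median Z' >0.3.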

BLEOMYCIN = compound: Cc1c(N)nc([C@H](CC(N)=O)NC[C@H](N)C(N)=O)nc1C(=O)N[C@H](C(=O)N[C@H](C)[C@@H](O)[C@H](C)C(=O)N[C@H](C(=O)NCCc1nc(-c2nc(C(=O)NCCC[S+](C)C)cs2)cs1)[C@@H](C)O)[C@@H](OC1OC(CO)C(O)C(O)C1OC1OC(CO)C(O)C(OC(N)=O)C1O)c1cnc[nH]1 [BLEOMYCIN]; assay: as above; conditions: exposure time: 5 days
How it was run: as §2

Row | Test System | area under dose-response curve (AFIMOXIFENE) | area under dose-response curve (CABOZANTINIB) | area under dose-response curve (IMATINIB) | area under dose-response curve (BMN-673) | surviving fraction (LENVATINIB; 0.5 nM) | surviving fraction (LENVATINIB; 1 nM) | surviving fraction (LENVATINIB; 5 nM) | surviving fraction (LENVATINIB; 10 nM) | surviving fraction (LENVATINIB; 50 nM) | surviving fraction (LENVATINIB; 100 nM) | surviving fraction (LENVATINIB; 500 nM) | surviving fraction (LENVATINIB; 1000 nM) | surviving fraction (BLEOMYCIN; 0.5 nM) | surviving fraction (BLEOMYCIN; 1 nM) | surviving fraction (BLEOMYCIN; 5 nM) | surviving fraction (BLEOMYCIN; 10 nM) | surviving fraction (BLEOMYCIN; 50 nM) | surviving fraction (BLEOMYCIN; 100 nM) | surviving fraction (BLEOMYCIN; 500 nM) | surviving fraction (BLEOMYCIN; 1000 nM)
1 | CCK81 LARGE INTESTINE | 2.84 | 2.42 | 2.6 | 2.04 |  |  |  |  |  |  |  |  |  |  |  |  |  |  |  | 
2 | G292 BONE | 3.18 | 3.03 | 3.31 | 2.57 | 0.99 ± 0.053 | 0.993 ± 0.054 | 1.02 ± 0.065 | 0.961 ± 0.019 | 0.838 ± 0.027 | 0.725 ± 0.013 | 0.33 ± 0.017 | 0.203 ± 0.0041 | 0.912 ± 0.048 | 0.887 ± 0.0095 | 0.801 ± 0.052 | 0.741 ± 0.067 | 0.553 ± 0.027 | 0.474 ± 0.02 | 0.315 ± 0.017 | 0.276 ± 0.0065
3 | HCC38 BREAST | 3.66 | 4.07 |  | 2 | 1.03 ± 0.056 | 1.19 ± 0.23 | 1.24 ± 0.24 | 1.19 ± 0.091 | 1.35 ± 0.052 | 1.28 ± 0.054 | 1.18 ± 0.091 | 1.09 ± 0.17 | 0.725 ± 0.19 | 0.725 ± 0.085 | 0.793 ± 0.22 | 0.776 ± 0.18 | 0.91 ± 0.23 | 0.781 ± 0.11 | 0.697 ± 0.14 | 0.498 ± 0.046
4 | HCC70 BREAST | 3.6 | 3.5 | 3.79 | 2.62 | 1.12 ± 0.07 | 1.136 ± 0.004 | 1.08 ± 0.067 | 1.15 ± 0.013 | 1.27 ± 0.1 | 1.13 ± 0.056 | 1.054 ± 0.0066 | 1.23 ± 0.09 | 0.965 ± 0.055 | 1 ± 0.086 | 0.935 ± 0.13 | 0.981 ± 0.026 | 0.835 ± 0.052 | 0.746 ± 0.052 | 0.606 ± 0.097 | 0.47 ± 0.076
5 | HMLE3 BREAST | 3.71 | 3.06 | 3.75 | 2.43 | 1.03 ± 0.019 | 0.951 ± 0.054 | 1.03 ± 0.052 | 1.05 ± 0.09 | 0.998 ± 0.12 | 0.905 ± 0.096 | 0.718 ± 0.029 | 0.658 ± 0.047 | 0.873 ± 0.098 | 0.892 ± 0.032 | 0.858 ± 0.085 | 0.907 ± 0.046 | 0.933 ± 0.044 | 0.967 ± 0.055 | 0.956 ± 0.042 | 0.864 ± 0.064
6 | HMT3552 BREAST | 3.53 |  | 3.57 | 2.34 | 1.03 | 0.978 | 1.01 | 0.921 | 0.975 | 1.02 | 0.944 | 0.893 | 0.873 | 0.943 | 0.9 | 0.807 | 0.55 | 0.299 | 0.15 | 0.182
7 | HS578T BREAST | 3.68 | 3.18 | 3.7 | 2.94 | 0.934 ± 0.11 | 1.16 ± 0.058 | 0.871 ± 0.17 | 0.974 ± 0.041 | 0.984 ± 0.078 | 0.91 ± 0.068 | 1.01 ± 0.1 | 0.871 ± 0.045 | 0.759 ± 0.12 | 0.774 ± 0.11 | 0.842 ± 0.043 | 0.783 ± 0.071 | 0.746 ± 0.074 | 0.596 ± 0.1 | 0.364 ± 0.021 | 0.359 ± 0.033
